Results from patent publication US11518764B2, “Substituted heteroaryls as inhibitors of the BCL6 BTB domain protein-protein interaction” (Ontario Institute for Cancer Research (OICR), priority 2018, dated 2022).

Biological target: BCL6 BTB domain (Homo sapiens (Human), UniProt P41182)
Experiment: Surface plasmon resonance (SPR) assay
Assay type: binding
Settings: BCL6 BTB domain captured on SA chip, single cycle kinetics

Row | Structure (SMILES) | Kd [nM]
1 | Cc1nc2c(c(-c3cc(C(N)=O)c(O)c(F)c3F)cn2CC(=O)Nc2cc(N3CCN(C4COC4)C[C@@H]3C)ncc2Cl)c(=O)n1C [Compound I-344] | 13.8
2 | C[C@H](C1CC1)N1CCN(c2cc(NC(=O)Cn3cc(-c4cc(C(N)=O)c(O)c(F)c4F)c4c(=O)n(C)cnc43)c(Cl)cn2)[C@@H](C)C1 [Compound I-425] | 44.7
3 | C[C@H]1CCCN1c1cc(NC(=O)Cn2cc(-c3cc(Cl)c(O)c(C(N)=O)c3)c3c(=O)n(C)cnc32)c(Cl)cn1 [Compound I-136] | 55
4 | CN(C)c1cc(NC(=O)Cn2cc(-c3cc(F)c(O)c(C(N)=O)c3)c3c(=O)n(C)cnc32)c(Cl)cn1 [Compound I-288] | 9.47
5 | CN1CC2CN(c3cc(NC(=O)Cn4cc(-c5cc(F)c(O)c(C(N)=O)c5)c5c(=O)n(C)cnc54)c(Cl)cn3)CC2C1 (stereo not drawn) [Compound I-287] | 18.6
6 | C[C@H]1CN(C)CCN1c1cc(NC(=O)Cn2cc(-c3cc(C(N)=O)c(O)c(Cl)c3F)c3c(=O)n(C)c(C(F)(F)F)nc32)c(Cl)cn1 [Compound I-267] | 582
7 | Cn1cnc2c(c(-c3cc(Cl)c(O)c(C(N)=O)c3)cn2CC(=O)Nc2c(Cl)cnc(N3CCOCC3)c2F)c1=O [Compound I-191] | 122
8 | CN(C)c1cc(NC(=O)Cn2cc(-c3cc(Cl)c(O)c(C(N)=O)c3)c3c(=O)n(C)c(Cl)nc32)c(Cl)cn1 [Compound I-292] | 81.2
9 | C[C@H]1COCCN1c1cc(NC(=O)Cn2cc(-c3cc(C(N)=O)c(O)cc3F)c3c(=O)n(C)cnc32)c(Cl)cn1 [Compound I-161] | 115
10 | Cn1cnc2c(c(-c3cc(Cl)c(O)c(C(N)=O)c3)cn2CC(=O)Nc2c(Cl)cnc(N3CCOCC3)c2F)c1=O [Compound I-185] | 118
11 | Cc1nc2c(s1)CN(c1cc(NC(=O)Cn3cc(-c4cc(Cl)c(O)c(C(N)=O)c4)c4c(=O)n(C)cnc43)c(Cl)cn1)C2 [Compound I-108] | 30
12 | Cc1nc2c(c(-c3cc(Cl)c(O)c(C(N)=O)c3)cn2CC(=O)Nc2cc(N3CCN(C)CC3)ncc2Cl)c(=O)n1C [Compound I-306] | 15.8
13 | C[C@@H]1CN(c2cc(NC(=O)Cn3cc(-c4cc(C(N)=O)c(O)c(F)c4F)c4c(=O)n(C)cnc43)c(Cl)cn2)C[C@H](C)N1C [Compound I-353] | 75
14 | CN1C(C)(C)CN(c2cc(NC(=O)Cn3cc(-c4cc(C(N)=O)c(O)c(F)c4F)c4c(=O)n(C)cnc43)c(Cl)cn2)CC1(C)C [Compound I-369] | 159
15 | Cn1cnc2c(c(-c3cc(C(N)=O)c(O)c(F)c3F)cn2CC(=O)Nc2cc(N3CC4CC3CO4)ncc2Cl)c1=O (stereo not drawn) [Compound I-286] | 83.7
16 | Cc1nc2cc(Cl)c(NC(=O)Cn3cc(-c4cc(F)c(O)c(C(N)=O)c4)c4c(=O)n(C)cnc43)cc2s1 [Compound I-160] | 39.1
17 | CN(C)c1cc(NC(=O)Cn2cc(-c3cc(C(N)=O)c(O)c(F)c3F)c3c(=O)n(C)cnc32)c(Cl)c(F)n1 [Compound I-420] | 16.3
18 | C=C(C)c1nc2c(c(-c3cc(Cl)c(O)c(C(N)=O)c3)cn2CC(=O)Nc2cc(N3CCN(C)C[C@@H]3C)ncc2Cl)c(=O)n1C [Compound I-322] | 34
19 | Cn1cnc2c(c(-c3cc(C(N)=O)c(O)c(F)c3F)cn2CC(=O)Nc2cc(N3CCCC3)nc(F)c2Cl)c1=O [Compound I-417] | 21.7
20 | C[C@H]1COCCN1c1cc(NC(=O)Cn2cc(-c3cc(F)c(O)c(C(N)=O)c3)c3c(=O)n(C)c(C(F)(F)F)nc32)c(Cl)cn1 [Compound I-234] | 48.8
21 | Cc1nc2c(c(-c3cc(C(N)=O)c(O)c(F)c3F)cn2CC(=O)Nc2cc(N3CCN(C4CC4)C[C@@H]3C)ncc2Cl)c(=O)n1C [Compound I-379] | 68.6

Tested on: BCL6 reporter construct (3xBCL6-TK-Luc) in SuDHL4 cells
Experiment: Cell-based luciferase assay
Settings: Homo sapiens, SU-DHL-4, 48 h, read-out: Luciferase-Assay EC50, uM), SuDHL4-3xBCL6-TK-Luc cells, two days, high dose 10 uM
Summary of the method: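 SuDHL4 cells stably carrying a 3×BCL6-site TK-promoter firefly luciferase reporter, seeded at 15,000 cells/well, were dosed over a 10-point range (top 10 uM) and grown two days at 37 °C, 5% CO2. Luminescence then read after adding neolite reagent at room temperature.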

Row | Structure (SMILES) | EC50 [µM]
22 | Cc1nc2c(c(-c3cc(C(N)=O)c(O)c(F)c3F)cn2CC(=O)Nc2cc(N3CCN(C4COC4)C[C@@H]3C)ncc2Cl)c(=O)n1C [Compound I-344] | 0.317
23 | C[C@H](C1CC1)N1CCN(c2cc(NC(=O)Cn3cc(-c4cc(C(N)=O)c(O)c(F)c4F)c4c(=O)n(C)cnc43)c(Cl)cn2)[C@@H](C)C1 [Compound I-425] | 0.629
24 | C[C@H]1CCCN1c1cc(NC(=O)Cn2cc(-c3cc(Cl)c(O)c(C(N)=O)c3)c3c(=O)n(C)cnc32)c(Cl)cn1 [Compound I-136] | 0.578
25 | CN(C)c1cc(NC(=O)Cn2cc(-c3cc(F)c(O)c(C(N)=O)c3)c3c(=O)n(C)cnc32)c(Cl)cn1 [Compound I-288] | 0.181
26 | CN1CC2CN(c3cc(NC(=O)Cn4cc(-c5cc(F)c(O)c(C(N)=O)c5)c5c(=O)n(C)cnc54)c(Cl)cn3)CC2C1 (stereo not drawn) [Compound I-287] | 1.71
27 | C[C@H]1CN(C)CCN1c1cc(NC(=O)Cn2cc(-c3cc(C(N)=O)c(O)c(Cl)c3F)c3c(=O)n(C)c(C(F)(F)F)nc32)c(Cl)cn1 [Compound I-267] | 2.27
28 | CN(C)c1cc(NC(=O)Cn2cc(-c3cc(Cl)c(O)c(C(N)=O)c3)c3c(=O)n(C)c(Cl)nc32)c(Cl)cn1 [Compound I-292] | 1.66
29 | C[C@H]1COCCN1c1cc(NC(=O)Cn2cc(-c3cc(C(N)=O)c(O)cc3F)c3c(=O)n(C)cnc32)c(Cl)cn1 [Compound I-161] | 0.971
30 | Cn1cnc2c(c(-c3cc(Cl)c(O)c(C(N)=O)c3)cn2CC(=O)Nc2c(Cl)cnc(N3CCOCC3)c2F)c1=O [Compound I-185] | 3.44
31 | Cc1nc2c(s1)CN(c1cc(NC(=O)Cn3cc(-c4cc(Cl)c(O)c(C(N)=O)c4)c4c(=O)n(C)cnc43)c(Cl)cn1)C2 [Compound I-108] | 0.203
32 | Cc1nc2c(c(-c3cc(Cl)c(O)c(C(N)=O)c3)cn2CC(=O)Nc2cc(N3CCN(C)CC3)ncc2Cl)c(=O)n1C [Compound I-306] | 0.106
33 | C[C@@H]1CN(c2cc(NC(=O)Cn3cc(-c4cc(C(N)=O)c(O)c(F)c4F)c4c(=O)n(C)cnc43)c(Cl)cn2)C[C@H](C)N1C [Compound I-353] | 1.35
34 | CN1C(C)(C)CN(c2cc(NC(=O)Cn3cc(-c4cc(C(N)=O)c(O)c(F)c4F)c4c(=O)n(C)cnc43)c(Cl)cn2)CC1(C)C [Compound I-369] | 2.2
35 | Cn1cnc2c(c(-c3cc(C(N)=O)c(O)c(F)c3F)cn2CC(=O)Nc2cc(N3CC4CC3CO4)ncc2Cl)c1=O (stereo not drawn) [Compound I-286] | 1.96
36 | Cc1nc2cc(Cl)c(NC(=O)Cn3cc(-c4cc(F)c(O)c(C(N)=O)c4)c4c(=O)n(C)cnc43)cc2s1 [Compound I-160] | 0.396
37 | CN(C)c1cc(NC(=O)Cn2cc(-c3cc(C(N)=O)c(O)c(F)c3F)c3c(=O)n(C)cnc32)c(Cl)c(F)n1 [Compound I-420] | 0.429
38 | C=C(C)c1nc2c(c(-c3cc(Cl)c(O)c(C(N)=O)c3)cn2CC(=O)Nc2cc(N3CCN(C)C[C@@H]3C)ncc2Cl)c(=O)n1C [Compound I-322] | 3.09
39 | Cn1cnc2c(c(-c3cc(C(N)=O)c(O)c(F)c3F)cn2CC(=O)Nc2cc(N3CCCC3)nc(F)c2Cl)c1=O [Compound I-417] | 0.478
40 | C[C@H]1COCCN1c1cc(NC(=O)Cn2cc(-c3cc(F)c(O)c(C(N)=O)c3)c3c(=O)n(C)c(C(F)(F)F)nc32)c(Cl)cn1 [Compound I-234] | 0.441
41 | Cc1nc2c(c(-c3cc(C(N)=O)c(O)c(F)c3F)cn2CC(=O)Nc2cc(N3CCN(C4CC4)C[C@@H]3C)ncc2Cl)c(=O)n1C [Compound I-379] | 0.664

Same assay, conditions: read-out: Luciferase-Assay EC50; SuDHL4-3xBCL6-TK-Luc cells, two days, high dose 10 uM

Row | Structure (SMILES) | EC50 [µM]
42 | Cn1cnc2c(c(-c3cc(Cl)c(O)c(C(N)=O)c3)cn2CC(=O)Nc2c(Cl)cnc(N3CCOCC3)c2F)c1=O [Compound I-191] | 5.42

Tested on: Karpas422 cells
Experiment: Tumor cell growth inhibition assay
Assay type: cell-based
Settings: Homo sapiens, KARPAS-422, 144 h, read-out: Tumor Growth Inhibition in Karpas-422 (IC50, uM), Karpas422 cells, six days, ATPlite
Summary of the method: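 Karpas422 cells (2,000/well) in Alpha-MEM with 10% FBS dosed across 10 concentrations (top 5 uM) and grown six days at 37° C., 5% CO2. Viability read as ATPlite luminescence.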

Row | Structure (SMILES) | IC50 [µM]
43 | Cc1nc2c(c(-c3cc(C(N)=O)c(O)c(F)c3F)cn2CC(=O)Nc2cc(N3CCN(C4COC4)C[C@@H]3C)ncc2Cl)c(=O)n1C [Compound I-344] | 0.701
44 | C[C@H](C1CC1)N1CCN(c2cc(NC(=O)Cn3cc(-c4cc(C(N)=O)c(O)c(F)c4F)c4c(=O)n(C)cnc43)c(Cl)cn2)[C@@H](C)C1 [Compound I-425] | 0.624
45 | C[C@H]1CCCN1c1cc(NC(=O)Cn2cc(-c3cc(Cl)c(O)c(C(N)=O)c3)c3c(=O)n(C)cnc32)c(Cl)cn1 [Compound I-136] | 0.96
46 | CN(C)c1cc(NC(=O)Cn2cc(-c3cc(F)c(O)c(C(N)=O)c3)c3c(=O)n(C)cnc32)c(Cl)cn1 [Compound I-288] | 0.128
47 | CN1CC2CN(c3cc(NC(=O)Cn4cc(-c5cc(F)c(O)c(C(N)=O)c5)c5c(=O)n(C)cnc54)c(Cl)cn3)CC2C1 (stereo not drawn) [Compound I-287] | 1.44
48 | C[C@H]1CN(C)CCN1c1cc(NC(=O)Cn2cc(-c3cc(C(N)=O)c(O)c(Cl)c3F)c3c(=O)n(C)c(C(F)(F)F)nc32)c(Cl)cn1 [Compound I-267] | 3.79
49 | CN(C)c1cc(NC(=O)Cn2cc(-c3cc(Cl)c(O)c(C(N)=O)c3)c3c(=O)n(C)c(Cl)nc32)c(Cl)cn1 [Compound I-292] | 0.575
50 | C[C@H]1COCCN1c1cc(NC(=O)Cn2cc(-c3cc(C(N)=O)c(O)cc3F)c3c(=O)n(C)cnc32)c(Cl)cn1 [Compound I-161] | 1.29
51 | Cc1nc2c(s1)CN(c1cc(NC(=O)Cn3cc(-c4cc(Cl)c(O)c(C(N)=O)c4)c4c(=O)n(C)cnc43)c(Cl)cn1)C2 [Compound I-108] | 0.408
52 | Cc1nc2c(c(-c3cc(Cl)c(O)c(C(N)=O)c3)cn2CC(=O)Nc2cc(N3CCN(C)CC3)ncc2Cl)c(=O)n1C [Compound I-306] | 0.265
53 | C[C@@H]1CN(c2cc(NC(=O)Cn3cc(-c4cc(C(N)=O)c(O)c(F)c4F)c4c(=O)n(C)cnc43)c(Cl)cn2)C[C@H](C)N1C [Compound I-353] | 0.648
54 | CN1C(C)(C)CN(c2cc(NC(=O)Cn3cc(-c4cc(C(N)=O)c(O)c(F)c4F)c4c(=O)n(C)cnc43)c(Cl)cn2)CC1(C)C [Compound I-369] | 2.8
55 | Cn1cnc2c(c(-c3cc(C(N)=O)c(O)c(F)c3F)cn2CC(=O)Nc2cc(N3CC4CC3CO4)ncc2Cl)c1=O (stereo not drawn) [Compound I-286] | 1.54
56 | Cc1nc2cc(Cl)c(NC(=O)Cn3cc(-c4cc(F)c(O)c(C(N)=O)c4)c4c(=O)n(C)cnc43)cc2s1 [Compound I-160] | 0.507
57 | CN(C)c1cc(NC(=O)Cn2cc(-c3cc(C(N)=O)c(O)c(F)c3F)c3c(=O)n(C)cnc32)c(Cl)c(F)n1 [Compound I-420] | 0.383
58 | C=C(C)c1nc2c(c(-c3cc(Cl)c(O)c(C(N)=O)c3)cn2CC(=O)Nc2cc(N3CCN(C)C[C@@H]3C)ncc2Cl)c(=O)n1C [Compound I-322] | 1.19
59 | Cn1cnc2c(c(-c3cc(C(N)=O)c(O)c(F)c3F)cn2CC(=O)Nc2cc(N3CCCC3)nc(F)c2Cl)c1=O [Compound I-417] | 0.441
60 | C[C@H]1COCCN1c1cc(NC(=O)Cn2cc(-c3cc(F)c(O)c(C(N)=O)c3)c3c(=O)n(C)c(C(F)(F)F)nc32)c(Cl)cn1 [Compound I-234] | 0.255
61 | Cc1nc2c(c(-c3cc(C(N)=O)c(O)c(F)c3F)cn2CC(=O)Nc2cc(N3CCN(C4CC4)C[C@@H]3C)ncc2Cl)c(=O)n1C [Compound I-379] | 0.853

Same assay, conditions: read-out: Tumor Growth Inhibition in Karpas-422 (IC50); Karpas422 cells, six days, ATPlite

Row | Structure (SMILES) | IC50 [µM]
62 | Cn1cnc2c(c(-c3cc(Cl)c(O)c(C(N)=O)c3)cn2CC(=O)Nc2c(Cl)cnc(N3CCOCC3)c2F)c1=O [Compound I-191] | 4.72
63 | Cn1cnc2c(c(-c3cc(Cl)c(O)c(C(N)=O)c3)cn2CC(=O)Nc2c(Cl)cnc(N3CCOCC3)c2F)c1=O [Compound I-185] | 2.2
